Measured values published in patent US20220040304A1, “A COMPOSITION FOR CANCER CELL DEATH AND ITS USE” (Industry-University Cooperation Foundation Hanyang …, priority 2018, published 2022).
Several values for one entry are separate records, joined by “and”; a condition that tells them apart may be missing. Equal values may be shown once.

What was measured:
[1] = Bioluminescence assay of purified proteins with Co-h substrate (BRET); format: physicochemical; conditions: protein 1 μM, Co-h 50 μM, 1×PBS
Method: In addition, 100 μL of buffer (1×PBS) containing the protein purified in Example 1 (final concentration: 1 μM) was dispensed into a 96-well plate (SPL Cell Culture Plate, 96 well (SPL, Cat #30196)), and bioluminescence assay was then performed using 50 μL of buffer (1×PBS) containing a Co-h substrate solution (final concentration: 50 μM), which is a wild-type 2-deoxy derivative. Bioluminescence intensity was immediately measured at a wavelength of 300 to 800 nm using a Thermo Scientific™ Varioskan™ Flash Multimode Reader.

[2] = Fluorescence assay of purified proteins (excitation/emission); format: physicochemical; conditions: protein 10 μM in 1×PBS
Method: 100 μL of buffer (1×PBS) containing the protein purified in Example 1 (final concentration: 10 μM) was dispensed into a 96-well plate (SPL Cell Culture Plate, 96 well (SPL, Cat #32096)). Afterward, a fluorescence signal level was detected by fluorescence assay using a Thermo Scientific™ Varioskan™ Flash Multimode Reader.

MCF-7 cells [3] = assay: MTT colorimetric change and cell viability after reaction with Co-h substrate; format: cell-based, human; conditions: MCF-7, protein 10 μM 24 hours, Co-h 150 μM, without light irradiation
Method: MCF-7 cells were seeded at 5×10^5 cells/mL in a 96-well plate (SPL Cell Culture Plate, 96 well (SPL, Cat #30096)), and cultured at 37° C. for 24 hours (overnight).
After the culture for 24 hours, the cells were washed with FBS & Phenol red-free media (RPMI), and 100 μL of an FBS-free medium containing the purified protein (final concentration: 10 μM) was added, followed by reaction at 37° C. for 24 hours.
After the reaction for 24 hours, the cells were washed with FBS & Phenol red-free media (RPMI), and then 100 μL of FBS & Phenol red-free media (RPMI) containing a Co-h substrate solution (final concentration: 150 μM) was added. The cells were washed with FBS & Phenol red-free media (RPMI), and 100 μL of fresh FBS & Phenol red-free media (RPMI) were then added.
10 μL of 3-(4,5-dimethylthiazol-2-yl)-2,5-diphenyltetrazolium bromide (MTT) (final concentration: 1×) was added, followed by reaction at 37° C. for 4 hours. After 100 μL of a supernatant was removed, 100 μL of DMSO was added, followed by reaction for 10 minutes. The colorimetric change of MTT according to a protein type treated to the cells and the light irradiation time was checked, and then cell viability was confirmed by measuring the absorbance intensity at 570 nm using a plate reader. […]

MCF-7 cells [4] = assay: MTT colorimetric change and cell viability after light irradiation; format: cell-based, human; conditions: MCF-7, protein 10 μM 24 hours, light 10 mW/cm^2, no Co-h
Method: MCF-7 cells were seeded at 5×10^5 cells/mL in a 96-well plate (SPL Cell Culture Plate, 96 well (SPL, Cat #30096)), and cultured at 37° C. for 24 hours (overnight). After the overnight culture, the cells were washed with FBS & Phenol red-free media (RPMI, Well Gene., Korea, Cat #LM011-02), and 100 μL of an FBS-free medium containing the purified protein (final concentration: 10 μM) was added, followed by reaction at 37° C. for 24 hours. After the reaction for 24 hours, the cells were washed with FBS & Phenol red-free media (RPMI), and then 100 μL of FBS & Phenol red-free media (RPMI) was added again. After light irradiation at 10 mW/cm^2 over time, the cells were washed with FBS & Phenol red-free media (RPMI), and 100 μL of FBS & Phenol red-free media (RPMI) was added again. 10 μL of 3-(4,5-dimethylthiazol-2-yl)-2,5-diphenyltetrazolium bromide (MTT; Cell Biolabs Inc., USA; final concentration: 1×) was added, followed by reaction at 37° C. for 4 hours. 100 μL of a supernatant was removed, and 100 μL of DMSO (Sigma-Aldrich., USA) was added, followed by reaction for 10 minutes. The colorimetric change of MTT according to a protein type treated to the cells and light irradiation time was confirmed, and then cell viability was confirmed by measuring the absorbance intensity at 570 nm using a plate reader.

MDA-MB-435 = assay: Cell death with Co-h substrate by cell type (SYTOX Green or EthD-1/DAPI); format: cell-based, human; conditions: MDA-MB-435, protein 10 μM, Co-h 150 μM for 5 minutes
Method: (§1) The cells were seeded at 5×10^5 cells/mL in 96-well plates (SPL Cell Culture Plate, 96 well (SPL, Cat #30096)), and cultured at 37° C. for 24 hours (overnight). After the culture for 24 hours, the cells were washed with FBS & phenol red-free media, and 100 μL of FBS & phenol red-free media containing a purified protein (final concentration: 10 μM) was added, followed by reaction at 37° C. for 24 hours.
(§2) Subsequently, the cells were washed with FBS & phenol red-free media, and 100 μL of FBS & phenol red-free media was added. 100 μL of FBS & Phenol red-free media (RPMI) containing a Co-h substrate solution (final concentration: 150 μM) was added, followed by reaction at 37° C. for 5 minutes.
(§3) After the reaction, 50 μL of SYTOX Green (final concentration: 261 nM) or 90 μL of ethidium homodimer (EthD-1) (final concentration 1×), which stains DNA of dead cells, was added, followed by reaction at 37° C. for 30 minutes. 10 μL of DAPI staining DNA of live cells was added, followed by reaction for 5 minutes. Cell death was confirmed by observing KillerRed, SYTOX Green, MiniSOG, EthD-1 and DAPI fluorescence using a confocal microscope.

BT-474 = assay: as above; format: cell-based, human; conditions: BT-474, protein 10 μM, Co-h 150 μM for 5 minutes
Method: as §1, §2, §3

MDA-MB-231 = assay: as above; format: cell-based, human; conditions: MDA-MB-231, protein 10 μM, Co-h 150 μM for 5 minutes
Method: as §1, §2, §3

SK-BR-3 = assay: as above; format: cell-based, human; conditions: SK-BR-3, protein 10 μM, Co-h 150 μM for 5 minutes
Method: as §1, §2, §3

MCF-7 = assay: as above; format: cell-based, human; conditions: MCF-7, protein 10 μM, Co-h 150 μM for 5 minutes
Method: as §1, §2, §3

MCF-10A = assay: as above; format: cell-based, human; conditions: protein 10 μM, Co-h 150 μM for 5 minutes
Method: as §1, §2, §3

Substance | emission in bioluminescence assay (BRET) [1] | emission wavelength (fluorescence) [2] | excitation wavelength [2] | cell viability / colorimetric change of MTT with reaction time with Co-h (MCF-7 cells [3]) | cell viability / colorimetric change of MTT with light irradiation time (MCF-7 cells [4]) | cell death with Co-h substrate (MDA-MB-435) | cell death with Co-h substrate (BT-474) | cell death with Co-h substrate (MDA-MB-231) | cell death with Co-h substrate (SK-BR-3) | cell death with Co-h substrate (MCF-7) | cell death with Co-h substrate (MCF-10A)
MS: first protein MiniSOG, ROS-generating protein (singlet oxygen), expressed from pRSET-MiniSOG, 13 kDa [reference compound] | 500 nm | 500 nm and 528 nm | 448 nm | the staining becomes pink | alive | – | – | – | – | – | –
RLuc8-MS: fusion protein of RLuc8 and MiniSOG without lead peptide, 53 kDa | – | – | – | the staining becomes pink | alive | none of the six breast cancer cell lines were killed | none of the six breast cancer cell lines were killed | none of the six breast cancer cell lines were killed | none of the six breast cancer cell lines were killed | none of the six breast cancer cell lines were killed | none of the six breast cancer cell lines were killed
